We go through 87 molecules from a melting point compilation (Tetko et al.; mined from patent text by program, amines drawn as free bases though some values may be those of a salt).

The molecule `O=C1CCC2=C(c3ccccc3)c3ccccc3C2N1` (configuration not stated) returned a melting point of 213 to 216 °C.
The result for `CCCCn1c(=O)c2cc(C(=O)OCC)cn2c2cc(Cl)c(Cl)cc21` reads 179 to 180 °C; that for `CCOC(=O)NNc1cc(-c2ccc(OC)cc2)c(-c2ccc(OC)cc2)nn1`, 212 to 214 °C.
The result for `CS(=O)(=O)c1ccc(C=Cc2ccc(NCCCCCCO)cc2)cc1` reads 113 to 115 °C.
The result for `S=c1[nH]cnn1C[C@]1(c2ccccc2)O[C@@H]1c1ccc(Cl)c(Cl)c1Cl` (relative stereo) reads 168 to 171 °C; that for `Cn1nnnc1C(CBr)=C(c1ccc(F)cc1)c1ccc(F)cc1`, 159 to 160 °C; that for `COc1ccc(CNc2cc3c(Nc4ccc(F)c(C(F)(F)F)c4)ncnc3cn2)cc1`, 202 to 204 °C.
The molecule `N[C@@H](CN1CCC(=C2c3ccccc3CCc3ccccc32)CC1)C(=O)O` registered a melting point of 150 to 151 °C.
In the case of `CN(C)c1nsc2nc3ccccc3n12` it was 102 to 104 °C.
The result for `CC(CNc1ccc(C(=O)O)cc1)Oc1ccccc1` (configuration not stated) reads 140 to 144 °C.
Molecule `N#CC1Cc2cc3cc[nH]c3cc21` (configuration not stated) came in with a melting point of 126 to 128 °C.
The result for `CC(=O)N1CCn2c(c(C3=C(c4cn(C)c5ccccc45)C(=O)NC3=O)c3ccccc32)C1` reads 308 to 310 °C.
Take `C[C@@H](Cn1ccc2ccc3ncccc3c21)NC(=O)OC(C)(C)C`: the melting point came to 185 °C.
The result for `CCOC(=O)c1ccc(C=CCN2CCc3nc(N)sc3CC2)cc1` reads 111 to 115 °C; that for `CCc1nnc(-c2ccc(-c3ccc(C(=O)N4CCCc5cc6c(cc54)C4(CCN(C)CC4)CO6)cc3)c(C)c2)o1`, 241 to 243 °C.
The result for `Fc1ccc(N=c2sc3ccc(Cl)cc3s2)cc1` reads 101 to 102 °C; that for `COC(OC)c1cnc(-c2ccccc2)[nH]1`, 158 to 160 °C; that for `CCCCCCC(Nc1ccccc1)=C1C(=O)ON=C1C`, 83 to 84 °C.
`COc1ccc(C(=O)c2ccc(OCc3ccccc3)cc2)c(O)c1`: the melting point lay within 124 to 125 °C.
The result for `Cc1nn(C)c2nc3ccccc3c(NCc3ccccc3)c12` reads 105 °C.
In the case of `NS(=O)(=O)c1ccc(C(=O)NCCCN2CCOCC2)cc1` it was 196 to 198 °C; in that of `CCCNCCc1c[nH]c2ccc(NC(N)=O)cc12`, 146 to 147 °C.
In the case of `CN(Cc1sc2c(=O)c(C(=O)NCc3ccc(Cl)cc3)cn(C)c2c1CNS(C)(=O)=O)C[C@@H](O)c1ccccn1` it was 171 to 177 °C; in that of `O=C(O)C(Sc1nc2ccc(Cl)nc2s1)c1ccc(Cl)cc1` (configuration not stated), 144 to 146 °C; in that of `O=C1CCC2C3Cc4ccc(O)c5c4C2(CC[N+]3([O-])CC2CC2)C1O5` (configuration not stated), 209 to 211 °C.
`O=C(CC1(c2ccccc2)CC1)C(=O)Nc1ccc2c(c1)COC2=O` registered a melting point of 132 to 138 °C.
In the case of `CS(=O)(=O)Nc1ccc(C(=O)C2CCN(CCc3cn4ccccc4n3)CC2)cc1` it was 190 to 191 °C.
The result for `COc1cc(-c2cc(=O)c3ccc(OCCCBr)cc3o2)cc(OC)c1OC` reads 156 to 157 °C.
In the case of `CCCn1nc2c(N)nc3ccccc3c2c1CC(C)(C)NS(C)(=O)=O` it was 130 to 139 °C.
Consider `C#CCCc1cc2ccc(C(=O)OC)cc2o1`, for which the melting point fell in the range of 68 to 69 °C.
In the case of `CCCc1c(OCCCOc2ccc(C(=O)C(=O)O)cc2)ccc(C(C)=O)c1OC` it was 94 to 96 °C; in that of `CC(CO)(CO)NS(=O)(=O)c1cccc(NC(=O)c2cnn3c(C(F)(F)F)cc(-c4ccc(C(F)(F)F)cc4)nc23)c1`, 248 °C; in that of `CC(=O)OCC1OC(n2c(=O)sc3c(=O)[nH]c(N)nc32)C(OC(C)=O)C1OC(C)=O` (configuration not stated), 198 to 199 °C.
In the case of `COc1cc2ncc(C#N)c(Nc3cccc(CSC(C)=O)c3)c2cc1OC` it was 172 to 177 °C.
The result for `CC(C)(C)CC(=O)Nc1ccc2oc3c(c2c1)CCCCC3` reads 182 to 183 °C; that for `O=C(NCCN(Cc1ccccc1)Cc1ccccc1)C1CCN(c2c(Cl)cncc2Cl)CC1`, 147 to 149 °C.
Turning to `COc1cc2c(cc1Nc1ncc(Cl)c(N[C@@H]3CCCC[C@H]3NS(C)(=O)=O)n1)NC(=O)CN(CC1CC1)C2`, the melting point was 97 °C.
In the case of `Cc1cc(N)c(F)cc1Br`, the melting point worked out at 57 °C.
In the case of `COC(=O)C1(Cl)CC(=O)N(c2ccc(Cl)cc2)C1=C(Cl)Cl` (configuration not stated) it was 159 °C; in that of `CC(C)C(=O)Nc1cc([N+](=O)[O-])cc([N+](=O)[O-])c1`, 157 to 159 °C.
In the case of `COC(=O)CCCCCCCCCNS(=O)(=O)c1ccc(Cl)cc1` it was 68 to 70 °C; in that of `Clc1cccc(N2CCN(CCCCNc3ccc(-c4ccccc4)cn3)CC2)c1Cl`, 110 °C.
On to `CN(C)c1ccc(CCBr)cc1`, for which the melting point is 45 to 46 °C.
The result for `CCCc1nc2c(N)nc3ccccc3c2n1CCOCCCS(=O)(=O)c1ccccc1` reads 160 to 161 °C.
In the case of `COc1ccccc1-n1c(=O)[nH]c2c(C(N)=O)nc(-c3cccc(C(=O)O)c3)nc21` it was 348 to 350 °C; in that of `O=c1c(O)c(-c2ccccc2)oc2cc(O)ccc12`, 128 °C.
In the case of `O=C(O)CCc1oc(/C=C/c2ccccc2)nc1-c1ccccc1` it was 138 to 139 °C; in that of `Fc1ccc(F)c2c(NCCc3ccc(Oc4ccnc(C(F)(F)F)c4Cl)cc3)ncnc12`, 129 to 131 °C; in that of `CN(C)CCCN(C)C(=O)NC(Cc1c[nH]c2ccccc12)C(=O)CCc1cc(C(F)(F)F)cc(C(F)(F)F)c1` (configuration not stated), 135 to 137 °C.
As to `CC(=O)Nc1cccc2c1C(=O)c1c-2n[nH]c1-c1cccnc1`, the melting point was above 300 °C.
Regarding `Cc1nc(N2C[C@H](C)N(Cc3ccc(F)cc3)C2=O)sc1C(=O)NCc1ccc(F)c(F)c1`, the melting point fell in the range of 62 to 65 °C.
In the case of `CSc1nc(N2CCN(CCCCN3C(=O)CC4(CCCC4)CC3=O)CC2)ncc1F` it was 83 to 85 °C.
Molecule `O=C(O)[C@@H]1C[C@@H](O)CN1C(=O)OCc1ccc([N+](=O)[O-])cc1` showed a melting point of 136 to 137 °C.
The result for `CCOC(=O)c1cnc2c(c(C)nn2-c2ccccc2)c1N(Cc1ccccc1)S(=O)(=O)c1ccc(OC)cc1` reads 164 to 166 °C; that for `CN(CCO)C(=O)Nc1ccc2c(c1)C(c1ccccc1F)=NCC(=O)N2C`, 196 to 198 °C; that for `COC(=O)c1nsc(NC=O)n1`, 210 to 215 °C.
The result for `Cc1cccc2c(CCN3CCCCC3)c(-c3ccccc3)[nH]c12` reads 159 to 161 °C.
In the case of `C=Cc1ccc(-c2ccc(OC(C)CCCCCC)cc2)cc1` (configuration not stated) it was 80.6 °C.
Turning to `O=Cc1cccc2sc(-c3ccccc3)nc12`, the melting point was in the range of 127 to 128 °C.
`CC(=O)Nc1ccc(-c2cc(=O)c(C(=O)O)cn2-c2ccc(F)cc2)cc1`: the melting point lay in the range of 249 to 250 °C.
As for `CCN1CCC(NC(=O)Cn2c(-c3ccc(Br)cc3)nc3cccnc32)C1` (configuration not stated), the melting point was in the range of 202 to 204 °C.
In the case of `COc1ccc(CCNC(=O)C(N)=O)cc1OC1CCCC1` it was 175 to 176 °C.
The molecule `CC(C)c1ccc2c(O)c(C(=O)Nc3ccc(OCC(C)(C)C)c(C#N)c3)sc2n1` returned a melting point of 211 to 212 °C.
In the case of `COc1cc2c(cc1OC)C(=O)C(c1ccc(F)cc1)C2` (configuration not stated) it was 189 to 191 °C; in that of `CN(Cc1cc2c3c(c1)c(=O)c(C(=O)NCc1ccc(F)cc1)cn3CC(=O)N2C)C[C@@H](O)c1cccs1`, 113 to 115 °C; in that of `CCCc1nn(-c2ccc(C(F)(F)F)cn2)cc1CCCOc1cc(CC(=O)O)ccc1OC`, 124 to 126 °C.
Consider `Cc1oc2c(-n3c(=O)cc(C(F)(F)F)n(C)c3=O)c(F)cc(Cl)c2c1C=O`, for which the melting point lay in the range of 148 to 150 °C.
In the case of `CC(=O)c1nc2ccc(OC(C)C)cc2cc1OCc1ccccc1` it was 102 to 104 °C; in that of `Cc1nc(Sc2ccc([N+](=O)[O-])cc2)nc(C)c1Cl`, 110 °C.
As for `CS(=O)(=O)OCCC(c1ccccc1)c1ccccc1`, the melting point was 83 to 85 °C.
In the case of `O=S(=O)(Cl)c1ccc2oc(Br)c(CBr)c2c1` it was 129 to 130 °C.
In the case of `C#Cc1cc(Nc2ncnc3cnc(NC(=O)/C=C/CN(C)C)cc23)ccc1F` it was 152 to 155 °C; in that of `ON=C(c1ccc(Cl)cc1)c1cccc2nc(N[C@@H]3CCc4ccccc43)ccc12`, 194 °C.
The molecule `CC(=Cc1ccccc1)c1ccc2c(c1)C(C)(C)CCO2` came in with a melting point of 64 to 65 °C.
In the case of `CC=CCCCn1cnc2c1c(=O)n(C)c(=O)n2C` it was 58 to 64 °C; in that of `CC(=O)c1c(NC(C)(C)C)nc(NC(C)(C)C)c(Br)c1C`, 99 to 100 °C; in that of `CCCCCCOC1CC(C)(C)N(c2nc(N(CCCC)C3CC(C)(C)NC(C)(C)C3)nc(N(CCCC)C3CC(C)(C)NC(C)(C)C3)n2)C(C)(C)C1`, 135 to 137 °C.
The result for `CC(C)(C)OC(=O)NCC(=O)Oc1cc2c(c3ccccc13)Nc1ccccc1S2` reads 175 °C.
The result for `COC(=O)C1Cc2c([nH]c3ccccc23)C(c2ccc(Cl)cc2Cl)N1C(=O)CCl` (configuration not stated) reads 106 to 109 °C.
For `NC(=O)C[C@H](NC(=O)CCc1ccc(OCc2ccccc2)cc1OCc1ccccc1)C(=O)N1CCN(Cc2ccccc2)CC1`, the melting point was in the range of 112 to 114 °C.
On to `CC(F)(F)c1cccc(C[C@H]2NC(=O)O[C@H]2c2ccc(F)cc2)c1` (racemic), for which the melting point lay within 143 to 144 °C.
In the case of `Cc1cc(C#N)nc(-c2ccc([N+](=O)[O-])cc2)c1` it was 146 to 156 °C.
As to `CN1CC23CC(c4ccccc4C2C1=O)c1ccccc13` (configuration not stated), the melting point lay within 141 to 146 °C.
The result for `CC(C)Oc1ccc(CCCOc2cc(CCC(=O)O)n(-c3ccccc3)n2)c(Oc2ncc(C(F)(F)F)cc2Cl)c1` reads 86 to 88 °C; that for `O=C(OCCCc1nc(-c2ccc(Cl)cc2)co1)c1ccccc1`, 47 to 47.5 °C; that for `CCCCCCCCc1ccc(CCC(CC)(CCOC(C)=O)NC(C)=O)cc1` (configuration not stated), 108 to 110 °C.
In the case of `CNC1=NS(=O)(=O)N=C1NCCSCc1csc(N(C)C)n1` it was 227 to 229 °C.

As a reminder, the melting point is the temperature, or range, at which the solid turns liquid.
